Columns and labels:
[1] = biological target: T1, NOD2 (Homo sapiens, UniProt Q9HC29); assay: NOD2-HEK-Blue NF-κB reporter cell activation assay (NOD2-expressing HEK-293T cells); type: cell-based; conditions: for EC50: calculated, three-parameter dose-response nonlinear regression, read-out: pEC50 (μM), dose-dependent activation of NOD2-expressing HEK-293T cells (converted); for Potency in structure-activity comparison: relative to TT007, FIG. 2B, 2D, 2F, 6E
T1 construct: host or cells: HEK-293T-derived HEK-Blue NF-kB/SEAP reporter cells
T1 sequence (Q9HC29 whole entry): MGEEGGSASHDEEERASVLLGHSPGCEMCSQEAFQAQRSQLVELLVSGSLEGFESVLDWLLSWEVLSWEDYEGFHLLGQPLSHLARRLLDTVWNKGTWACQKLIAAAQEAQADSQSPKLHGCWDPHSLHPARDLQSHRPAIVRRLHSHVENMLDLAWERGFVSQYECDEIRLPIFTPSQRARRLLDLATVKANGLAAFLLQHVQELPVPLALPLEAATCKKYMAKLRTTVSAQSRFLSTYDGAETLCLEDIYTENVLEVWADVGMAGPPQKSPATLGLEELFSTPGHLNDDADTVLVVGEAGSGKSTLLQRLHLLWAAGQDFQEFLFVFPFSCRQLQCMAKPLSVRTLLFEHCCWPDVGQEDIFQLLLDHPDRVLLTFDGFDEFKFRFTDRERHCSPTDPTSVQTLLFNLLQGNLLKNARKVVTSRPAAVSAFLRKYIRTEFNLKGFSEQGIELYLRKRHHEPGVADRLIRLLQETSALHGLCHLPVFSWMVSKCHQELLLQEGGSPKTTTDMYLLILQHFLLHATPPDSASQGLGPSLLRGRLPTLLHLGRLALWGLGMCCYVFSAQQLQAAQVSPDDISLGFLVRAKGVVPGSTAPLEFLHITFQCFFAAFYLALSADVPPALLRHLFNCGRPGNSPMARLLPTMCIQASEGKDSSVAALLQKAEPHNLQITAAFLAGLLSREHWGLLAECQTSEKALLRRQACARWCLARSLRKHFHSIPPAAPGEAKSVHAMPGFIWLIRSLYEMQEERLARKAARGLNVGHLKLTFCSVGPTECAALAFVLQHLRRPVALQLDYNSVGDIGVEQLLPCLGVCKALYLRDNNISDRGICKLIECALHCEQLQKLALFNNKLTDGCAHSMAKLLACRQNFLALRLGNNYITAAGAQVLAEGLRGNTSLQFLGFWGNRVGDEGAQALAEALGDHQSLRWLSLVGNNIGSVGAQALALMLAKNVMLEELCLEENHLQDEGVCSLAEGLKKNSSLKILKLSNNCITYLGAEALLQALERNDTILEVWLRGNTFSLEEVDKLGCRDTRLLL
Source text: FIG. 1(A-F). Virtual screening for small molecule NOD2 agonists. A, Docked structure of muramyl dipeptide (MDP) in the leucine-rich repeat (LRR) domain of rabbit NOD2 (pdb 5IRM). […] B, Results of virtual docking approach with reported chemical structures related to MDP. C, Workflow of virtual screening in which a library was generated using carboxylic acids appended to the L-Val-D-Glu dipeptide and then docked to the NOD2 LRR domain. D, Desmuramyl MDP (dMDP) structures resulting from the virtual screen that were synthesized for further screening. Chemicals shown as a pure enantiomer were synthesized as a racemic mixture. E, Activation of NOD2-expressing HEK-293T cells treated for 16 h with 10 µM of the indicated compound using a colorimetric assay. F, Dose-dependent activation of NOD2-expressing HEK-293T cells using the indicated compounds. Numbers in parentheses represent calculated negative log of the half maximal effective concentration (pEC50) values. NOD activation assays were analyzed using a one-way ANOVA with Dunnett's multiple comparisons test compared to the DMSO control. pEC50 values were derived by a three-parameter dose-response nonlinear regression. ****P<0.0001.
FIG. 2(A-G). Structure-activity relationship studies of 3,5-dimethyl-N-arylpyrazole NOD2 agonists. A, Structures of 3,5-dimethyl-N-arylpyrazole structures synthesized for SAR studies. B-F, Dose-dependent activation of NOD2-expressing HEK-293T cells using the indicated compounds grouped by similar structural perturbations. Numbers in parentheses represent calculated pEC50 values. G, Graph of calculated pEC50 values vs. calculated partition coefficient (clogP). Dotted lines show equivalent lipophilic ligand efficiency (LLE) values. Red arrow indicates optimization of the TT007 scaffold to TT030. pEC50 values were derived by a three-parameter dose-response nonlinear regression.
Cell culture. The following cell lines were used and sourced as follows: HEK-Blue NOD2 (InvivoGen, hkb-hnod2), HEK-Blue NOD1 (InvivoGen, hkb-nod1), HEK-Blue Null2 (hkb-null2), and B16-F10 (ATCC CRL-6475). All cell lines were cultured at 37° C. in 5% CO2 in DMEM (ThermoFisher, 11995065) supplemented with 10% fetal bovine serum (FBS), 100 U mL-1 penicillin, and 100 μg mL-1 streptomycin. Cells were maintained at no greater than 70% confluency and subcultured using TrypLE Express. Cell lines were routinely cultured without antibiotics to ensure no bacterial infection and tested for mycoplasma using a Universal Mycoplasma Detection Kit (ATCC 30-1012K). Primary human peripheral mononuclear blood cells (PBMCs) were cultured at 37° C. in 5% CO2 in RPMI 1640 (ThermoFisher, 61870143) supplemented with 10% FBS. All experimental work using human samples was reviewed and approved by the Scripps Research Institutional Review Board (Protocol IRB-21-7816NOD2).
Reporter cell line activation assay. Approximately 24 h before the assay, culture medium for each of the HEK-Blue reporter cell lines was replaced with a 1:1 mixture of DMEM supplemented with 10% FBS and OptiMEM. On the day of the assay, single cell suspensions (150,000 cells/mL) were produced in HEK-Blue detection medium (InvivoGen, hb-det2). Cells were aliquoted at 200 μL per well of a 96-well plate containing 0.2 μL of a 1000× stock of each test compound in DMSO. Cells were then incubated at 37° C. in 5% CO2 for 8-10 h. To measure activity, wells were then gently pipetted up and down to mix the conditioned medium, and absorbance from the colorimetric product of the secreted alkaline phosphatase was measured at 630 nm. In some assays, cells were stimulated for 16 h with compounds as described above in complete DMEM. Then, 20 μL of the conditioned medium was mixed with 180 μL QUANTI-Blue solution (InvivoGen, rep-qbs) and incubated for 2-4 h at 37° C. Activity was then measured by absorbance as described above.

[2] = tested on: B16-F10 subcutaneous tumors; assay: B16-F10 tumor growth assay with anti-PD-L1 co-treatment; type: in vivo, mice; conditions: wild-type C57BL/6 mice, 100 μg α-PD-L1 and 100 μg compound i.p. every other day
Procedure: FIG. 3(A-H). NOD2 agonist TT030 activates cytokine production in vitro and improves immune checkpoint inhibitor treatment of tumor growth in vivo. A-D, Measurements of secreted cytokine levels from human peripheral mononuclear blood cells (PMBCs) treated with the indicated compounds for 24 h without or with lipopolysaccharide (LPS). E, Structures of TT030 and its enantiomer (TT030-ent). F, Activation of NOD1- and NOD2-expressing HEK-293T cells with the indicated compounds. C12-iE-DAP is a lipophilic version of the NOD1 agonist, iE-DAP. G, Growth profiles of B16-F10 subcutaneous tumors in wild-type C57BL/6 mice treated with 100 μg α-PD-L1 and 100 μg of the indicated compounds every other day starting at Day 7. H, Growth profiles of B16-F10 subcutaneous tumors in wild-type or Nod2^−/− C57BL/6 mice treated with 100 μg α-PD-L1 and 100 μg TT030 every other day starting at Day 7. Cytokine secretion assays and NOD activation assays were analyzed using a one-way ANOVA with Dunnett's multiple comparisons test compared to the DMSO control. Longitudinal tumor growth assays were analyzed using linear mixed-effects model analysis on the log transformed data. ns=not significant, *P<0.05, **P<0.01, ***P<0.001, ****P<0.0001.
Animals. Specific pathogen-free, eight-week old male C57BL/6J (B6, 000664) and B6.129S1—Nod2^tm1Flv/J (Nod2^−/−, 005763 from Flavell Lab, Yale School of Medicine) were obtained from The Jackson Laboratory. Animals were housed in autoclaved caging with SaniChip bedding and enrichment for nest building on a 12-hour light/dark cycle. Animals were provided gamma-irradiated chow (LabDiet, 5053) and sterile drinking water ad libitum. Animal care and experiments were conducted in accordance with NIH guidelines and approved by the Institutional Animal Care and Use Committee at Scripps Research (Protocol AUP-21-095).
Tumor growth assay. B16-F10 cells were subcultured on the day prior to harvesting for tumor inoculation. On the day of injection, cells were harvested using TrypLE Express, washed and resuspended in cold PBS, and counted with a hemocytometer. Cells were then resuspended at 2×10^6 cells mL^−1 in PBS and mixed 1:1 with Matrigel matrix (Corning; growth factor reduced, 356231). Cell suspensions were kept on ice prior to injection. Animals were anesthetized using 3% isoflurane, and their right flank was shaved with hair clippers. Animals were then subcutaneously injected with 100 μL of the cell suspension on their mid-right flank (1×10^5 cells per injection). Once tumors were established at roughly 25-100 mm^3, tumor volume was measured every other day. Digital calipers were used to measure the length and width of each tumor, and tumor volume was calculated as length×[…], where width was the smaller of the two measurements. […]

SMILES | EC50 [1] | other results
CCOC(=O)CC[C@H](NC(=O)[C@H](NC(=O)c1c(C)nn(-c2cc[nH]c(=O)c2)c1C)C(C)C)C(=O)OCC [TT030-ent, Diethyl (3,5-dimethyl-1-(2-oxo-1,2-dihydropyridin-4-yl)-1H-pyrazole-4-carbonyl)-D-valyl-L-glutamate] | – | NOD2 activity in the HEK-Blue in vitro assay ([1]; FIG. 3F): NOD2-inactive; B16 tumor growth over time [2]: not
CCOC(=O)CC[C@@H](NC(=O)[C@H](C(C)C)N(C)C(=O)c1cn(-c2ccc(F)cc2)nc1C)C(=O)OCC [TT021, Diethyl N-(1-(4-fluorophenyl)-3-methyl-1H-pyrazole-4-carbonyl)-N-methyl-L-valyl-D-glutamate] | – | Activity after N-methylation on Val ([1]; TT018 vs. TT019, TT010 vs. TT020, TT011 vs. TT021, FIG. 2C): abolished the activity
CCOC(=O)CC[C@@H](NC(=O)[C@@H](NC(=O)c1cnn(-c2cccnc2)c1)C(C)C)C(=O)OCC [TT037, diethyl (1-(pyridin-3-yl)-1H-pyrazole-4-carbonyl)-L-valyl-D-glutamate] | 5.01 µM | –
CCOC(=O)CC[C@@H](NC(=O)[C@@H](NC(=O)/C=C/c1ccc(F)cc1)C(C)C)C(=O)OCC [TT002, Diethyl ((E)-3-(4-fluorophenyl)acryloyl)-L-valyl-D-glutamate] | – | NOD2 activation, result in words in the pEC50 column ([1]; Table 1): Active
CCOC(=O)CC[C@@H](NC(=O)[C@@H](NC(=O)c1c(C)nn(-c2ccc(Cl)c(Cl)c2)c1C)C(C)C)C(=O)OCC [TT022, Diethyl (1-(3,4-dichlorophenyl)-3,5-dimethyl-1H-pyrazole-4-carbonyl)-L-valyl-D-glutamate] | 1.26 µM | Potency in structure-activity comparison [1]: slight increase
CCOC(=O)CC[C@@H](NC(=O)[C@@H](NC(=O)c1c(C)nn(-c2ccc(OC)cc2)c1C)C(C)C)C(=O)OCC [TT023, Diethyl (1-(4-methoxyphenyl)-3,5-dimethyl-1H-pyrazole-4-carbonyl)-L-valyl-D-glutamate] | 2 µM | Potency in structure-activity comparison [1]: did not yield compounds with appreciable differences in potency
CCOC(=O)CC[C@@H](NC(=O)[C@@H](NC(=O)C(C)Cc1ccc(F)c(F)c1)C(C)C)C(=O)OCC (mixture of isomers) [TT005, Diethyl (3-(3,4-difluorophenyl)-2-methylpropanoyl)-L-valyl-D-glutamate] | 0.631 µM | –
CCOC(=O)CC[C@@H](NC(=O)[C@@H](NC(=O)c1c(C)nn(-c2ccc3[nH]ccc3c2)c1C)C(C)C)C(=O)OCC [TT028, Diethyl (1-(1H-indol-5-yl)-3,5-dimethyl-1H-pyrazole-4-carbonyl)-L-valyl-D-glutamate] | 0.251 µM | –
CCOC(=O)CC[C@@H](NC(=O)[C@@H](NC(=O)c1cnn(-c2ccccc2O)c1C)C(C)C)C(=O)OCC [TT014, Diethyl (1-(2-hydroxyphenyl)-5-methyl-1H-pyrazole-4-carbonyl)-L-valyl-D-glutamate] | 31.6 µM | –
CCOC(=O)CC[C@@H](NC(=O)[C@@H](NC(=O)c1c(C)nn(-c2ccncc2)c1C)C(C)C)C(=O)OCC [TT031, Diethyl (3,5-dimethyl-1-(pyridin-4-yl)-1H-pyrazole-4-carbonyl)-L-valyl-D-glutamate] | 3.16 µM | –
CCOC(=O)CC[C@@H](NC(=O)[C@@H](NC(=O)c1cn(-c2ccc(F)cc2)nc1C)C(C)C)C(=O)OCC [TT011, Diethyl (1-(4-fluorophenyl)-3-methyl-1H-pyrazole-4-carbonyl)-L-valyl-D-glutamate] | 10 µM | Potency in structure-activity comparison [1]: reduced potency by up to two orders of magnitude

Source: patent US20260176300A1, “N-ARYLPYRAZOLE NOD2 AGONISTS AS PROMOTERS OF IMMUNE CHECKPOINT INHIBITOR THERAPY” (THE SCRIPPS RESEARCH INSTITUTE, priority 2022, published 2026)
